Tests used:
Test in all cases: anti-phage ELISA, relative SH3 binding activity of phage clones
Lck-SH3 = test system: Lck-SH3; set-up: species or system menschlichen; conditions: phage-displayed peptide, Fig. 2f; binding to Lck-SH3 compared with other SH3 domains
Source text: (§1) "anti-Phage-ELISA" - Bestimmung der relativen SH3-Bindungsaktivität einzelner Phagenklone
(§2) Dieser Bindungstest ist ein häufig verwendeter Test zur schnellen Bestimmung relativer Bindungsstärken selektierter Peptide, die hierbei noch physikalisch mit dem Phagen verknüpft vorliegen. Dieser Schritt dient auch zur Eliminierung von (bei dieser Methode nicht selten auftretenden) Phagenvarianten, die z. B. aufgrund ihrer Affinität zur Plastikoberfläche der verwendeten Mikrotiterplatten, angereichert werden und die somit zur Verfälschung der Ergebnisse führen können. Eine grundsätzliche Beschreibung der Methode findet sich z. B. unter Sparks et al. Methods Enzymol. 1995; 255:498-509.
(§3) GST-SH3 Protein wurde in einer Konzentration von 1-10 µg/ml in Tris-Bis über Nacht bei 4°C in Mikrotiterplatten immobilisiert. Verbleibende Bindungsstellen wurden durch 2-stündige Inkubation mit Blockierungspuffer (Bis-Tris mit 2 % Magermilchpulver) abgesättigt. In einer anderen Mikrotiterplatte wurden zuerst je 100 µl Suspension der zu testenden Phagenvariante mit 100 µl Blockierungspuffer für 20 Minuten vorinkubiert und erst dann für 1 Stunde zum immobilisierten GST-SH3 Protein gegeben. Nach einem Waschschritt mit Bis-Tris wurde ein Meerrettich-Peroxidase-konjugierter Antikörper zugegeben und die Platten für eine weitere Stunde inkubiert. […]

Lyn-SH3 = conditions: phage-displayed peptide, Fig. 2f; binding to Lyn-SH3 compared with Lck-SH3
Source text: as §1, §2, §3

Hck-SH3 = conditions: phage-displayed peptide, Fig. 2f; binding to Hck-SH3 compared with Lck-SH3
Source text: as §1, §2, §3

relative SH3-Bindungsaktivität (Lck-SH3): nicht die stärkste Bindung
relative SH3-Bindungsaktivität (Lyn-SH3): ähnlich gut
relative SH3-Bindungsaktivität (Hck-SH3): ähnlich gut
Sequence: HSKYPLPPLPSL [PD1, control peptide from standard selection with Lck-SH3 as bait]

Source: patent publication EP2472259B1, “Specific molecules clinging to a lure” (Forschungszentrum Jülich GmbH, priority 2006, dated 2014)
